In patent US20220125746A1, “METHOD OF PREVENTING OR TREATING TREATMENT-INDUCED GASTROINTESTINAL INJURY” (priority 2019, published 2022):
Counter-ions that a name gives are not always drawn.

Legend:
[1] = PUMAi distribution in intestinal mucosa and plasma (LC-MS/MS); format: in vivo, mouse; conditions: for PUMAi concentration in intestinal mucosa compared to -1.5 hours: 10 mg/kg i.p.
Procedure: Acetonitrile and water (all HPLC grade) were purchased from Fisher Scientific. Formic acid and trifluoroacetic acid was purchased from Sigma-Aldrich. Stock solutions of PUMAi and [D5]-PUMAi internal standard were prepared at 1 mg/mL in DMSO, diluted 10 times in acetonitrile, and then stored at −80° C. On the day of the assay, the solution was serially diluted (in 10-fold steps) in acetonitrile to obtain the lower calibration working solutions of 0.01 and 0.001 mg/mL. These calibration working solutions were diluted in mouse plasma (Lampire Biological Laboratories, Inc.) to produce the following analyte concentrations: 10, 30, 50, 100, 300, 500, 1000, 3000 ng/mL. For each calibration series, zero (containing 10 ng/mL of internal standard) and blank samples were also prepared from 50 μL of Lampire plasma. Quality control (QC) stock solutions were diluted in Lampire mouse plasma to produce the following QC samples: QC Low (QCL) 20 ng/mL; QC Mid (QCM) 200 ng/mL, and QC High (QCH) 2500 ng/mL.
To extract PUMAi, we added 10 μL of internal standard solution (1000 ng/mL [D5]-PUMAi in acetonitrile) to 50 μL of plasma sample in a micro centrifuge tube. […]
The mass spectrometer was operated in ESI positive mode using MRM detection. […] The mass transitions monitored were m/z 331>143 for PUMAi and 345>157 for the internal standard.
To assess recovery from plasma, we compared areas from control plasma spiked with 1000 ng/mL of PUMAi, prepared as described above, with the areas obtained with a neat solution of PUMAi in water. Intestinal mucosa was analyzed after dilution in control plasma to within the calibration range. […]
PUMAi {1-[4-(2-hydroxyethyl)-1-piperazinyl]-3-(2-naphthyloxy)-2-propanol dihydrochloride} was synthesized by ChemBridge, with a purity of 95% by HPLC-MS, and an internal isotopic standard PUMAih7 (D5, five internal hydrogens replaced by deuterium) was synthesized by Alsachim, with purity approaching 100% by HPLC-MS. […] Detailed methods on LC-MS/MS (liquid chromatography-tandem MS) quantitation of PUMAi are found in Supplementary Materials and Methods.

mouse colonic organoids = experiment: Mouse colonic organoids treated with CPT; format: cell-based; conditions: PUMAi 50 uM
Procedure: Fresh mucosal scrapings from 10 cm of jejunum were washed in cold PBS, resuspended in 700 ul of RNA lysis buffer, and homogenized in a Dounce homogenizer. RNA was isolated using the Quick-RNA MiniPrep kit (Zymo Research) according to the manufacturer's instructions. Organoids were freed from Matrigel using Cell Recovery Solution (Corning), as described in, before RNA isolation. Complementary DNA was generated from 2 ug of total RNA from mice or ˜100 ng of total RNA from colonic organoids and was pooled from three mice or three wells of organoid culture per treatment group using SuperScript III reverse transcriptase (Invitrogen) and random primers. Gene expression was normalized to Gapdh. Representative results are shown, and similar results were obtained in at least three independent experiments. Details on mouse and human primers are found in Tables 1 and 2.
Mouse crypt isolation, organoid development, and passage were done as previously described with minor modifications. In brief, the complete culture medium for mouse intestinal organoids was slightly modified as follows: advanced Dulbecco's modified Eagle medium (DMEM)/F12 (12634-010, Invitrogen) was supplemented with 100 units/ml penicillin/0.1 mg/ml streptomycin (Invitrogen), 2 mM GlutaMAX (ThermoFisher), 20% (vol/vol) FBS (S11150, ATLANTA Biologicals), and WRN-conditioned medium (50%, vol/vol). Freshly isolated crypts were cultured with the same medium plus 10 μM Y-27632 (Y0503 Sigma) and 100 μg/ml Primocin (ant-pm-1, InvivoGen). For CPT and PUMAi treatment, intestinal organoids were passaged and re-plated in 25 μL of Matrigel (356231, Corning) in 24-well plates 24 hours before treatment with CPT (0.5 μM, C9911, Sigma-Aldrich) and PUMAi (50 μM) for 24 hours. The CPT-containing medium was replaced with complete medium containing PUMAi (50 μM). Three groups (treatment control, CPT only, and CPT plus PUMAi) were set up. Organoids 100 μm or greater in diameter were enumerated on day 6 after CPT treatment. Similar results were obtained from at least three independent experiments with triplicate wells in each experiment.

Structure (SMILES): OCCN1CCN(CC(O)COc2ccc3ccccc3c2)CC1 (centres unmarked) [PUMAi, 1-[4-(2-hydroxyethyl)-1-piperazinyl]-3-(2-naphthyloxy)-2-propanol dihydrochloride]
- PUMAi concentration in intestinal mucosa compared to -1.5 hours ([1]; +1 hour of CPT-11 administration): 67%
- PUMAi concentration in intestinal mucosa compared to -1.5 hours ([1]; +6 hours of CPT-11 administration): 30%
- PUMAi concentration in plasma over time ([1]; -1.5, +1, +6 hours, compared with intestinal mucosa): dropped more quickly in the plasma
- CPT-induced activation of WNT and NOTCH targets (Lgr5, CD44, Olfm4) (mouse colonic organoids; 24 h after CPT): suppressed CPT-induced activation of WNT and NOTCH targets
- CPT-induced growth suppression and caspase-3 activation (mouse colonic organoids; CPT 500 nM 24 h): strongly blocked
